For the experiment, the target named is T1, sGC α1/β1 heterodimer (Homo sapiens, UniProt Q02108+Q02153).
T1 construct: expressed in transfected cells; host or cells: CHO-K1 (clone #7, CHO-K1/sGC)
T1 sequence (Q02108 1-690): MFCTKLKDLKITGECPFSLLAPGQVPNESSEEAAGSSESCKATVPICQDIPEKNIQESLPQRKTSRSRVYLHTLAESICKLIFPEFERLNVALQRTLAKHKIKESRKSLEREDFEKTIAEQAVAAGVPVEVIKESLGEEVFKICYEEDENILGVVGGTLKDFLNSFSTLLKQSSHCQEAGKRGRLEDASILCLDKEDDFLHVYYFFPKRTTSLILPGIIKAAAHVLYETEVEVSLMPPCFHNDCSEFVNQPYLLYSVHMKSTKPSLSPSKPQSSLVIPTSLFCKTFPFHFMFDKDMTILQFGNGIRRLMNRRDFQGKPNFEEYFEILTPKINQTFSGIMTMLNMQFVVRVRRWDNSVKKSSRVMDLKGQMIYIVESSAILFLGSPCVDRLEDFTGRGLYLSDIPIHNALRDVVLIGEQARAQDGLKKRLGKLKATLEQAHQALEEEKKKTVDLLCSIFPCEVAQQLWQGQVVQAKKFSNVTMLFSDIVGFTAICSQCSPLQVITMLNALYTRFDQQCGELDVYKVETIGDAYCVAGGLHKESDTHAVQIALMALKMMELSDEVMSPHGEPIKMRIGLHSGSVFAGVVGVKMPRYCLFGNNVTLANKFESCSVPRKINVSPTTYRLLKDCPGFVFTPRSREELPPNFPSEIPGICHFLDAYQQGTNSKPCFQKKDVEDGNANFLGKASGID
T1 sequence (Q02153 1-619): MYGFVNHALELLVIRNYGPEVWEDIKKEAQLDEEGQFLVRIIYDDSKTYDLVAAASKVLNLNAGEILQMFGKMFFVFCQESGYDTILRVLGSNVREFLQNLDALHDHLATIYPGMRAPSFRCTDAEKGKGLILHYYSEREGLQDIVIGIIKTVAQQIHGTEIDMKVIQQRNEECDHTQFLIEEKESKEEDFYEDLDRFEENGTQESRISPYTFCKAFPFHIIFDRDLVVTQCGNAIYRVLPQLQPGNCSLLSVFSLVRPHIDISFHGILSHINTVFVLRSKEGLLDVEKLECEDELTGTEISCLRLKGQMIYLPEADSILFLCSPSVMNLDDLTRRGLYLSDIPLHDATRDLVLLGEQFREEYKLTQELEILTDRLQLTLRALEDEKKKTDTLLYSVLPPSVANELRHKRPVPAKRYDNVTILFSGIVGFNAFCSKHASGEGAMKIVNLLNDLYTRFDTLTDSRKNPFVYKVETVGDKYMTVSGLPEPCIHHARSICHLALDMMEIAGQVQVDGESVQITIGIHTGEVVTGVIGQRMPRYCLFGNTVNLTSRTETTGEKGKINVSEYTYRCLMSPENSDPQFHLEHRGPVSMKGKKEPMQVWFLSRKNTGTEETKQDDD
Briefly: Cell-based sGC functional assay (CASA assay): cGMP generation in CHO-K1/sGC cells, HTRF detection. Particulars: for Emax: CHO-K1, percent activation relative to standard Compound A in CHO-K1/sGC cells, read-out: % Act.; for EC50: inflection point (IP) of cGMP generation in CHO-K1/sGC cells, 4P fit, activity expressed as percentage of Compound A. The essentials:
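Stable CHO-K1/sGC cells in EBSS buffer with 5 mM MgCl2, 0.05% BSA and 0.5 mM IBMX were incubated with compound (2.5% DMSO final) ±1 μM DETA-NO for 1 hr at 37° C. cGMP was measured by HTRF. Activation is expressed as % of reference HDA Compound A maximum, with IP and max fold induction from a 4P fit.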

SMILES strings stand for the structures.

For orientation: EC50 means the midpoint of the concentration-response curve. A high value points to weaker potency. For the compound `CC1(c2ccc(Cl)cn2)C(=O)Nc2nc(-c3cn4ccnc4c(CC4CCC4)n3)nc(N)c21` (centres unmarked) [Example 116A, 4-amino-5-(5-chloropyridin-2-yl)-2-(8-(cyclobutylmethyl)imidazo [1,2-a]pyrazin-6-yl)-5-methyl-5H-pyrrolo[2,3-d]pyrimidin-6(7H)-one], the Emax was found to be 79% and it took 10 nM to reach a half-maximal effect (EC50).
The matching figures for `CC1(c2ccc(F)cc2)C(=O)Nc2nc(-c3cn4ccnc4c(CCC4CCCCC4)n3)nc(N)c21` (centres unmarked) [Example 12A, 4-amino-2-(8-(2-cyclohexylethyl)imidazo[1,2-a]pyrazin-6-yl)-5-(4-fluorophenyl)-5-methyl-5H-pyrrolo[2,3-d]pyrimidin-6(7H)-one]: 142% and 53 nM.
The matching figures for `CC1(c2ccc(Cl)cc2)C(=O)Nc2nc(-c3cn4cc(C(F)(F)F)nc4c(Cc4ccccc4F)n3)nc(N)c21` (centres unmarked) [Example 151A, 4-amino-5-(4-chlorophenyl)-2-(8-(2-fluorobenzyl)-2-(trifluoromethyl)imidazo[1,2-a]pyrazin-6-yl)-5-methyl-5H-pyrrolo[2,3-d]pyrimidin-6(7H)-one]: 106% and 19 nM.
The like results for `Cc1nc(C2(C3CC3)C(=O)Nc3nc(-c4cn5ccnc5c(CCC(F)(F)C(F)(F)F)n4)nc(N)c32)ccc1F` (single isomer, unassigned) [Example 363B, 4-amino-5-cyclopropyl-5-(5-fluoro-6-methylpyridin-2-yl)-2-(8-(3,3,4,4,4-pentafluorobutyl)imidazo[1,2-a]pyrazin-6-yl)-5H-pyrrolo[2,3-d]pyrimidin-6(7H)-one] were, in that order, 186% and 244 nM.
With `CC1(F)CN(c2nc(-c3cn4ccnc4cn3)nc3c2C(C)(c2ccc(Cl)cc2)C(=O)N3)C1` (centres unmarked) [Example 284A, 5-(4-chlorophenyl)-4-(3-fluoro-3-methylazetidin-1-yl)-2-(imidazo[1,2-a]pyrazin-6-yl)-5-methyl-5H-pyrrolo[2,3-d]pyrimidin-6(7H)-one], the Emax was determined as 120% and a half-maximal effect (EC50) was put at 102 nM.
The matching figures for `CC1(c2ccc(F)cc2)C(=O)Nc2nc(-c3cn4ccnc4c(C4CC4)n3)nc(N)c21` (centres unmarked) [Example 28A, 4-amino-2-(8-cyclopropylimidazo[1,2-a]pyrazin-6-yl)-5-(4-fluorophenyl)-5-methyl-5H-pyrrolo[2,3-d]pyrimidin-6(7H)-one]: 82% and 652 nM.
The like results for `CC1(c2ccc(F)cc2)C(=O)Nc2nc(-c3cn4ccnc4c(CCC(F)(F)C(F)(F)F)n3)nc(N3CCSCC3)c21` (centres unmarked) [Example 300A, 5-(4-fluorophenyl)-5-methyl-2-(8-(3,3,4,4,4-pentafluorobutyl)imidazo[1,2-a]pyrazin-6-yl)-4-thiomorpholine-5H-pyrrolo[2,3-d]pyrimidin-6(7H)-one] were, in that order, 136% and 492 nM.
The matching figures for `COc1ccc(-c2nc(-c3nc(N)c4c(n3)NC(=O)C4(C)c3ccc(F)cc3)cn3ccnc23)cc1` (centres unmarked) [Example 7A, 4-amino-5-(4-fluorophenyl)-2-(8-(4-methoxyphenyl)imidazo[1,2-a]pyrazin-6-yl)-5-methyl-5H-pyrrolo[2,3-d]pyrimidin-6(7H)-one]: 63% and 583 nM.
`COc1ccc(C2(C)C(=O)Nc3nc(-c4cn5ccnc5c(CCC(F)(F)F)n4)nc(N)c32)cc1` (centres unmarked) [Example 192B, 4-amino-5-(4-methoxyphenyl)-5-methyl-2-(8-(3,3,3-trifluoropropyl)imidazo[1,2-a]pyrazin-6-yl)-5H-pyrrolo[2,3-d]pyrimidin-6(7H)-one]: the Emax is 168% and the EC50 was determined as 923 nM.
Take `Nc1nc(-c2cn3ccnc3c(CCC(F)(F)C(F)(F)F)n2)nc2c1C(c1nnc(C3CC3)o1)(C1CC1)C(=O)N2` (centres unmarked) [Example 56B, 4-amino-5-cyclopropyl-5-(5-cyclopropyl-1,3,4-oxadiazol-2-yl)-2-(8-(3,3,4,4,4-pentafluorobutyl)imidazo[1,2-a]pyrazin-6-yl)-5H-pyrrolo[2,3-d]pyrimidin-6(7H)-one]: the Emax came out at 89% and the EC50 came out at 772 nM.
As for `Nc1nc(-c2cn3ccnc3c(CCCC(F)(F)F)n2)nc2c1C(c1ncc(C(F)(F)F)cc1Cl)(C1CC1)C(=O)N2` (single isomer, unassigned) [Example 370B, 4-amino-5-(3-chloro-5-(trifluoromethyl)pyridin-2-yl)-5-cyclopropyl-2-(8-(4,4,4-trifluorobutyl)imidazo[1,2-a]pyrazin-6-yl)-5H-pyrrolo[2,3-d]pyrimidin-6(7H)-one], the Emax is 99% and the EC50 turned out to be 262 nM.
As to `CC1(c2ccc(Cl)cc2)C(=O)Nc2nc(-c3cn4ccnc4cn3)nc(NCCCC(F)(F)F)c21` (centres unmarked) [Example 285A, 5-(4-chlorophenyl)-2-(imidazo[1,2-a]pyrazin-6-yl)-5-methyl-4-((4,4,4-trifluorobutyl)amino)-5H-pyrrolo[2,3-d]pyrimidin-6(7H)-one], the Emax is 130% and the EC50 was determined as 20 nM.
As to `CCC1(c2ccc(F)cn2)C(=O)Nc2nc(-c3cn4ccnc4c(Cc4ccc(F)cc4)n3)nc(N)c21` (centres unmarked) [Example 106A, 4-amino-5-ethyl-2-(8-(4-fluorobenzyl)imidazo[1,2-a]pyrazin-6-yl)-5-(5-fluoropyridin-2-yl)-5H-pyrrolo[2,3-d]pyrimidin-6(7H)-one], the Emax was determined as 83% and the midpoint of the response, the EC50, lay at 252 nM.
The matching figures for `CC(C)(C)CCc1nc(-c2nc(N)c3c(n2)NC(=O)C3(C)c2ccc(F)cn2)cn2ccnc12` (centres unmarked) [Example 122B, 4-amino-2-(8-(3,3-dimethylbutyl)imidazo[1,2-a]pyrazin-6-yl)-5-(5-fluoropyridin-2-yl)-5-methyl-5H-pyrrolo[2,3-d]pyrimidin-6(7H)-one]: 119% and 92 nM.
As to `CCCCc1nc(-c2nc(N)c3c(n2)NC(=O)C3(C)c2ccc(Cl)cn2)cn2c(C)cnc12` (centres unmarked) [Example 169A, 4-amino-2-(8-butyl-3-methylimidazo[1,2-a]pyrazin-6-yl)-5-(5-chloropyridin-2-yl)-5-methyl-5H-pyrrolo[2,3-d]pyrimidin-6(7H)-one], the Emax turned out to be 75% and the half-maximal effective concentration (EC50) was determined as 19 nM.
The like results for `CCOc1ccc(C2(C)C(=O)Nc3nc(-c4cn5ccnc5c(CCC(F)(F)C(F)(F)F)n4)nc(N)c32)nc1` (centres unmarked) [Example 224A, 4-amino-5-(5-ethoxypyridin-2-yl)-5-methyl-2-(8-(3,3,4,4,4-pentafluorobutyl)imidazo [1,2-a]pyrazin-6-yl)-5H-pyrrolo[2,3-d]pyrimidin-6(7H)-one] were, in that order, 77% and 153 nM.
The like results for `CC1(c2ccc(Cl)cc2)C(=O)Nc2nc(-c3cn4ccnc4cn3)nc(NC3CC(F)(F)C3)c21` (centres unmarked) [Example 287A, 5-(4-chlorophenyl)-4-((3,3-difluorocyclobutyl)amino)-2-(imidazo[1,2-a]pyrazin-6-yl)-5-methyl-5H-pyrrolo[2,3-d]pyrimidin-6(7H)-one] were, in that order, 133% and 376 nM.
The like results for `CC(C)Cc1nc(-c2nc(N)c3c(n2)NC(=O)C3(c2ccc(Cl)cn2)C2CC2)cn2ccnc12` (centres unmarked) [Example 126B, 4-amino-5-(5-chloropyridin-2-yl)-5-cyclopropyl-2-(8-isobutylimidazo[1,2-a]pyrazin-6-yl)-5H-pyrrolo[2,3-d]pyrimidin-6(7H)-one] were, in that order, 160% and 242 nM.
For the compound `CCc1ccc(C2(C)C(=O)Nc3nc(-c4cn5ccnc5c(CCC(F)(F)C(F)(F)F)n4)nc(N)c32)nc1` (centres unmarked) [Example 242B, 4-amino-5-(5-ethylpyridin-2-yl)-5-methyl-2-(8-(3,3,4,4,4-pentafluorobutyl)imidazo [1,2-a]pyrazin-6-yl)-5H-pyrrolo[2,3-d]pyrimidin-6(7H)-one], the Emax was 133% and the EC50 is 127 nM.

(Values after patent publication US9796733B2, “Imidazo-pyrazine derivatives useful as soluble guanylate cyclase activators” (Merck Sharp & Dohme Corp., priority 2014, dated 2017).)
